Test results taken from patent US20260216057A1, “PHARMACEUTICAL COMPOSITIONS FOR HERPES VIRUS” (priority 2022, published 2026).

What was measured:
recurrent genital HSV-2 = details: 28 days daily oral dosing; pritelivir 100 mg (after 400 mg loading dose), valacyclovir 500 mg; cited from earlier work
[1] = Example 5: comparative pritelivir solution PK study in rat following IV/SC administration; type: in vivo, male Sprague Dawley rats; details: for AUC(0-t): male, Sprague Dawley, plasma, solution, n = 3
Protocol: A solution of crystalline pritelivir free base (dihydrate) in 5% NMP, 5% Solutol HS15 & 90% saline at a concentration of 0.5 mg/mL was prepared as follows: • 1) A stock solution of 10 mg/mL of pritelivir (dihydrate) in NMP was prepared. • 2) Equal volumes of the pritelivir stock solution and Solutol HS15 were combined and mixed. • 3) The above solution was diluted with normal saline to reach target 0.5 mg/mL pritelivir concentration. The formulation was a clear solution.
Male Sprague Dawley (SD) rats with ~300 g body weight (ages 6-8 weeks) were used for the pharmacokinetic study. The animals had free access to food and water. The pritelivir solution described above was administered via intravenous injection to animals (n=3) with a dosing volume of 2 mL/kg to achieve a 1 mg/kg dose. For subcutaneous injection, the dosing volume of 10 mL/kg was utilized to achieve a 5 mg/kg dose.
At each time point, approximately 200 μL whole blood was collected in a K2EDTA tube via the jugular vein. Blood samples were put on ice and centrifuged at 2000 g for 5 min to obtain a plasma sample within 15 minutes. Plasma samples were stored at approximately −70° C. until analyzed by LC-MS according to the method described above.

[2] = Example 14: pritelivir SC PK study in dog (solution, micro-suspension, nano-suspension); type: in vivo, male non-naïve Beagle dogs; details: 10 mg/kg
Protocol: The LC-MS methodology and conditions used to analyse pritelivir in dog plasma samples from the PK study described in Example 14 are provided in Table 2.
A solution of pritelivir in 90% NMP (Sigma) and 10% Solutol HS15 (BASF) at a concentration of 100 mg/mL was prepared as follows: • 1) Around 460 mg of crystalline pritelivir free base sesquihydrate (based on assay) was weighed and added to ~3.9 mL of NMP. The mixture was stirred for 10 mins. • 2) After the pritelivir had dissolved, Solutol HS15 (−0.4 mL) was added to the solution and mixed for another 2 mins. • 3) The final dosing formulation was a clear solution.
An aqueous micro-suspension of crystalline pritelivir free base (sesquihydrate) in a 2 mg/mL polysorbate 80 (Tween 80) and 5 mg/mL Methocel A4M vehicle at a concentration of 100 mg/mL was prepared as follows: • 1) Crystalline pritelivir free base (sesquihydrate) was jet milled [grinding pressure […]] to obtain microparticles (Dv90<10 um). • 2) Around 460 mg of jet milled material (based on assay) were then dispersed in a 2 mg/mL polysorbate 80 (Tween 80) and 5 mg/ml Methocel A4M solution (−4.4 mL) to obtain a 100 mg/ml suspension. • 3) The mixture was stirred for 10 minutes. • 4) The final dosing formulation was a homogenous white cloudy suspension.
An aqueous nano-suspension of crystalline pritelivir free base (sesquihydrate) in a 10 mg/mL NaCMC, 2 mg/mL polysorbate 80 (Tween 80) and 50 mg/mL mannitol vehicle at a concentration of 100 mg/mL was prepared as follows: • 1) 10 mg/mL crystalline pritelivir free base (sesquihydrate) was dispersed into a solution of 1 mg/mL NaCMC+0.2 mg/mL polysorbate 80 (Tween 80) and 5 mg/mL mannitol. • 2) The suspension was subjected to high pressure homogenizer (around 20 cycles at 600 bar followed with 130 cycles at 900 bar) until particle size was around 1 μm. • 3) After particle size reduction, the suspension was subjected to freeze drying to obtain a freeze-dried powder. • 4) The freeze-dried powder was reconstituted with water to obtain a 100 mg/ml suspension. • 5) The suspension was wet milled (10:1 0.1 mm zirconium oxide milling beads: pritelivir) at 700 rpm for 500 minutes to reduce particle size to nanosized particles (Dv90<500 nm). • 6) This nanosuspension was subjected to freeze drying to obtain a freeze-dried powder. • 7) Appropriate amounts of freeze-dried powder (based on assay) were weighed and added to water to obtain a 100 mg/ml suspension. • 8) The mixture was stirred for 10 minutes. • 9) The final dosing formulation was a homogenous white cloudy suspension.
Male non-naïve beagles were used for the dog PK study. […]
(§1) At each time point, approximately 0.5 mL of whole blood was collected into K2EDTA tubes. […] Plasma samples were stored at approximately −70° C. until analyzed by LC-MS.

[3] = Example 16: Compound 1 solution SC PK study in dog; type: in vivo, male non-naïve Beagle dogs; details: 10 mg/kg
Protocol: The LC-MS methodology and conditions used to analyse the helicase-primase inhibitor Compound 1 in dog plasma samples from the dog PK study described in Example 16 are given in Table 9.
(§2) A solution of Compound 1 in 90% NMP and 10% Solutol HS15 at a concentration of 50 mg/mL was prepared as follows: • 1) An appropriate amount of crystalline Compound 1 (Form C) was weighed and added to NMP. • 2) After Compound 1 had dissolved, Solutol HS15 was added to the solution and mixed. • 3) The final dosing formulation was a clear solution.
as §2, with “100” for “50”
Male non-naïve beagles were used for the dog PK study. The animals had free access to food and water. The prepared 50 mg/mL solution was administered via subcutaneous injection to each animal group (n=3) with a dosing volume of 0.2 mL/kg to achieve a 10 mg/kg dose. […]
as §1

## Cc1nc(N(C)C(=O)Cc2ccc(-c3ccccn3)cc2)sc1S(N)(=O)=O [pritelivir, N-methyl-N-(4-methyl-5-sulfamoyl-1,3-thiazol-2-yl)-2-[4-(pyridin-2-yl)phenyl]acetamide]
Recurrent genital HSV-2
  HSV shedding, % of genital swabs analysed: 2.4%
[1]; intravenous (IV), 1 mg/kg
  F: 100%
  AUC(0-t): 31.8 µg·h/mL
[1]; subcutaneous (SC), 5 mg/kg
  AUC(0-t): 185 µg·h/mL
[2]; 0.1 mL/kg, all three formulations (solution, microsuspension, nanosuspension; 100 mg/mL)
  plasma exposure after SC administration: Prolonged exposure was achieved
[2]; early time points (up to 234 hr)
  plasma concentrations, microsuspension compared with nanosuspension: higher plasma concentrations of pritelivir were obtained from the microsuspension
[2]; solution in 90% NMP/10% Solutol HS15, early time points
  plasma concentration levels of the solution formulation compared with the suspensions: highest plasma concentration levels at the early time points
[2]; three formulations
  adverse reactions at the injection sites: no adverse reactions were observed

## Cc1nc(N2CCCN(c3ccc(-c4cc(F)ccc4F)cc3)C2=O)sc1S(N)(=O)=O [Compound 1, 2-(3-(2′,5′-difluoro-[1,1′-biphenyl]-4-yl)-2-oxotetrahydropyrimidin-1(2H)-yl)-4-methylthiazole-5-sulfonamide]
[3]; both solution formulations
  adverse reactions at the injection sites: no adverse reactions were observed
[3]; solutions 50 mg/mL (0.2 mL/kg) and 100 mg/mL (0.1 mL/kg), both formulations
  prolonged exposure for (length of the study): at least 60 days
